How the values were obtained:
CXCR4 chemokine receptor = CXCR4 chemokine receptor (Homo sapiens, UniProt P61073); assay: Competition with CXCR4 binding antibodies, flow cytometry; conditions: competition with anti-human CXCR4 mAb (44708.111), serial dilutions of compound added simultaneously with antibody
Description: (§1) The antibodies used in this study were: unconjugated mouse anti-human CXCR4 mAbs clones 44708.111, 44716.111, PE-conjugated clone 44717.111 and 12G5 (R&D Systems Europe, Abingdon, UK). Cells were preincubated with 20 μM of the compound for 30 mins. Thereafter cells were incubated with each of the mAbs for a further 60 mins. In the case of the direct binding assay, serial dilutions of the compound were added simultaneously with the antibody (44708.111). Cells were then incubated with a secondary fluorescein isothiocyanate-conjugated anti-mouse antibody (IgG-FITC) (Serotec, UK) for 30 mins. Cell samples were analysed by a FACScan flow cytometer (BD Biosciences Europe. Erembodegem, Belgium). Data were acquired and analysed with CellQuest software (Becton Dickinson) on an Apple Macintosh computer. Relative percentage inhibitions were calculated from the mean fluorescent intensity of the whole cell population and relative inhibitory concentration (IC) values were obtained by non linear regression analyses using the Graphpad prism software.

HIV-1 (IIIB) = assay: Anti-HIV activity in MT-4 cells, tetrazolium viability, HIV-1; format: cell-based; conditions: Human immunodeficiency virus 1, MT4, 120 h, 5 d, read-out: av IC50
From the text: (§2) Anti-HIV activity and cytoxicity measurements in MT-4 cells were based on viability of cells that had been infected or not infected with HIV-1 (IIIB) and HIV-2 (ROD) ×4 strainsexposed to various concentrations of the test compound [following the procedure of S. Harada et al., Science, 1985, 229, 563]. The MT-4 cells were allowed to proliferate for 5 d after which time the number of viable cells was quantified by a tetrazolium-based colorimetric method [described by R. Pauwels et al., Journal of Virology Methods, 1988, 20, 309.]

MT-4 cells = assay: Cytotoxicity in MT-4 cells, tetrazolium viability; format: cell-based; conditions: 5 d, printed in HIV-2 line, read-out: av CC50
From the text: as §2

[1] = Cytotoxicity in MT-4 cells, tetrazolium viability; format: cell-based; conditions: human, printed in HIV-1 line, read-out: av CC50
From the text: as §2

HIV-2 (ROD) = assay: Anti-HIV activity in MT-4 cells, tetrazolium viability, HIV-2; format: cell-based; conditions: Human immunodeficiency virus 2, MT4, 120 h, 5 d, read-out: av IC50
From the text: as §2

CXCR4 receptor = molecular target: T1, CXCR4 receptor (Homo sapiens, UniProt P61073); assay: Binding of rhodamine-tagged macrocycles to jurkat cells, flow cytometry; conditions: FIG. 1 / FIG. 2
T1 construct: endogenous in cells; host or cells: Jurkat cells
Description: Two monocyclam compounds were tagged with rhodamine and specific binding to the CXCR4 receptor was analysed by incubating with jurkat cells. Cell samples were analysed by flow cytometry as described in example 8, below.
as §1

Chain of CXCR4 chemokine receptor (P61073 whole entry): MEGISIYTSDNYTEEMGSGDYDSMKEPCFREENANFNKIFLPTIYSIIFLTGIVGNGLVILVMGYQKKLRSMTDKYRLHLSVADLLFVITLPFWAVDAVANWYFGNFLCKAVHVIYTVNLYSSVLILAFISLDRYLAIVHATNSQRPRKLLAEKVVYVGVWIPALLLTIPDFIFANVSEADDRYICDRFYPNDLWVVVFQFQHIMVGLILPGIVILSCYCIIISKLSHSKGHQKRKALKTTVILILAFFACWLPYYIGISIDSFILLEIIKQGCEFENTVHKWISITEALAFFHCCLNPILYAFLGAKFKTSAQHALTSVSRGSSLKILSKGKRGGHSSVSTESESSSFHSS
T1 sequence (P61073 whole entry): as above

| Compound | IC50 (CXCR4 chemokine receptor) [µM] | IC90 (CXCR4 chemokine receptor) [µM] | IC50 (HIV-1 (IIIB)) [µM] | CC50 (MT-4 cells) [µM] | CC50 at 5 d [1] [µM] | IC50 (HIV-2 (ROD)) [µM] | binding to the CXCR4 chemokine receptor (flow cytometry histogram) (CXCR4 receptor) |
| --- | --- | --- | --- | --- | --- | --- | --- |
| c1cc(CN2CCCN3CCN(CCCNCC2)CC3)ccc1CN1CCCN2CCN(CCCNCC1)CC2 [Compound 16] | 17 | > 17 | 6.98 | > 225 | > 225 | 23.2 |  |
| CCN(CC)c1ccc2c(-c3ccc(NC(=S)Nc4ccc(CN5CCCN6CCN(CCCNCC5)CC6)cc4)cc3C(=O)O)c3ccc(=[N+](CC)CC)cc-3oc2c1 [Rhodamine-Bridged Macrocycle Conjugate] |  |  |  |  |  |  | binding of the chelator to the CXCR4 chemokine receptor |

— patent US8034800B2, “Antiviral macrocycle derivatives and metal complexes, incorporating bridged macrocycles” (University of Hull, priority 2004, dated 2011)
